In PMC9069370, “Integrated Design of a Membrane‐Lytic Peptide‐Based Intravenous Nanotherapeutic Suppresses Triple‐Negative Breast Cancer” (Advanced Science, 2022):
Peptide text beside a SMILES is read from it.

Columns and labels:
MCF‐10A = assay: cells; format: cell-based, human; details: 2D culture, ratio of IC50
Description: (§1) […], and MCF-10A cells were maintained in MEGM with supplements and growth factors bovine pituitary extract, hydrocortisone, human epidermal growth factor, insulin, and gentamicin/amphotericin-B.

HMLER‐shEcad = assay: cells; format: cell-based, human; details: 72 h
Description: as §1

HEK293T = assay: cells; format: cell-based, human; details: 72 h
U2OS = format: cell-based, human; details: 72 h
[1] = ANTS/DPX liposome leakage assay; details: for Peptide Concentration-induced 50 % ANTS/DPX leakage at pH 4.8 (L/P), 3POPC/1POPG Vesicle / Peptide Concentration-induced 50 % ANTS/DPX leakage at pH 4.8 (L/P), POPC Vesicle / Peptide Concentration-induced 50 % ANTS/DPX leakage at pH 7.4 (L/P), 3POPC/1POPG Vesicle / Peptide Concentration-induced 50 % ANTS/DPX leakage at pH 7.4 (L/P), POPC Vesicle: 0.5 mM vesicles, peptide 0-20 µM, 3 h incubation, lipid per peptide; for Peptide Concentration-induced 50 % ANTS/DPX leakage at pH 4.8 (L/P), 3POPC/1POPG Vesicle / Peptide Concentration-induced 50 % ANTS/DPX leakage at pH 4.8 (L/P), POPC Vesicle: HCl-adjusted PBS 1X pH 4.8; for Peptide Concentration-induced 50 % ANTS/DPX leakage at pH 7.4 (L/P), 3POPC/1POPG Vesicle / Peptide Concentration-induced 50 % ANTS/DPX leakage at pH 7.4 (L/P), POPC Vesicle: PBS 1X pH 7.4, high ratio = more potent; for change of ANTS/DPX dye leakage / liposome selectivity at pH 4.8: pH = 4.8 compared with physiological pH, anionic versus neutral liposomes
Procedure: Vesicle preparation: 5 mM ANTS and 12.5 mM DPX were entrapped in 0.1 µm diameter extruded vesicles (either POPC or POPC/POPG at a ratio of 3:1) with lipids. Gel filtration chromatography of Sephadex G‐100 was used to remove external free ANTS/DPX from LUVs with entrapped contents. LUVs were diluted to 0.5 mM and used to measure the leakage activity by the addition of aliquots of ACPs. Leakage was measured after 3 h incubation. 10% Triton was used as the positive control to measure the maximum leakage of the vesicle. Fluorescence emission spectra were recorded using excitation and emission wavelength of 350 and 510 nm for ANTS/DPX using a BioTek Synergy H1 Hybrid Multi‐Mode Reader.
Peptide Concentration-induced Peptide Concentration-induced
Name Sequence† 50 % ANTS/DPX leakage 50 % ANTS/DPX leakage at pH 7.4 (L/P) at pH 4.8 (L/P)
POPC Vesicle 3POPC/1POPG Vesicle POPC Vesicle 3POPC/1POPG Vesicle […]
Extended Data Table 4 | Peptide concentration-induced 50 % ANTS/DPX liposome leakage. 0.5 mM POPC and 3POPC/1POPG vesicles were fixed and incubated with titrated peptide concentration (0, 0.02, […]
hydrochloric acid-adjusted phoshate buffered saline (1X, pH 4.8). The values are shown as lipid per

[2] = Tryptophan fluorescent binding assay; details: tryptophan fluorescence; 50 µM peptide, lipid titrated 0-5000 µM; phosphate buffered saline 1X, pH 7.4; values as lipid per peptide
Procedure: 50 µM ACP peptides and varied concentrations (concentrations: 0, 25, 50, 100, 150, 200, 250, 500, 1250, and 2500 µM) of POPC or POPC:POPG (3:1 ratio) large unilamellar vesicles were prepared in 10 mM phosphate buffer (pH 7.0). The solutions were measured after 1 h of incubation. Excitation was fixed at 280 nm (slit 9 nm) and emission was collected from 300 to 450 nm (slit 9 nm). The spectra were recorded using Cytation 5 Cell Imaging Multi‐Mode Reader from BioTek and were averaged by three scans.
Lipid Concentration-induced
Name Sequence† 50% Peptide Binding (L/P)
Extended Data Table 3 | Tryptophan binding assay. […]
peptide binding onto liposome. 50 µM peptides were fixed and incubated with titrated lipid (POPC vesicle […]
phosphate buffered saline (1X, pH 7.4). The lipid concentration that causes 50 % peptide binding was determined using tryptophan fluorescent binding assay and the values are shown as lipid per peptide.

Row | IC50 (HMLER‐shEcad) [µM] | IC50 (U2OS) [µM] | Lipid Concentration-induced 50% Peptide Binding (L/P), 3POPC/1POPG Vesicle [2] [L/P] | Lipid Concentration-induced 50% Peptide Binding (L/P), POPC Vesicle [2] [L/P] | SMILES | selectivity for cancerous cells over non‐tumorigenic MCF‐10A (MCF‐10A) [fold] | IC50 (HEK293T) [µM] | Peptide Concentration-induced 50 % ANTS/DPX leakage at pH 4.8 (L/P), 3POPC/1POPG Vesicle [1] [L/P] | Peptide Concentration-induced 50 % ANTS/DPX leakage at pH 4.8 (L/P), POPC Vesicle [1] [L/P] | Peptide Concentration-induced 50 % ANTS/DPX leakage at pH 7.4 (L/P), 3POPC/1POPG Vesicle [1] [L/P] | Peptide Concentration-induced 50 % ANTS/DPX leakage at pH 7.4 (L/P), POPC Vesicle [1] [L/P] | change of ANTS/DPX dye leakage / liposome selectivity at pH 4.8 [1]
1 | 2.55 ± 0.07 | 18.2 ± 1.06 | 0.44 | 0.44 | CC(C)C[C@H](NC(=O)CN)C(=O)N[C@@H](CC(C)C)C(=O)N[C@@H](CCC(=O)O)C(=O)N[C@@H](CC(C)C)C(=O)N[C@@H](CC(C)C)C(=O)N[C@@H](Cc1c[nH]cn1)C(=O)N[C@@H](CC(C)C)C(=O)N[C@@H](CC(C)C)C(=O)N[C@@H](CC(C)C)C(=O)N[C@@H](CCC(=O)O)C(=O)N[C@@H](C)C(=O)N[C@@H](C)C(=O)NCC(=O)N[C@@H](Cc1c[nH]c2ccccc12)C(N)=O [EHE] (H-GLLELLHLLLEAAGW-NH2) | > 25 | 13 | 384 | 75 | 706 | 952 | significantly increased dye leakage from anionic liposomes
2 | 3.6 ± 0.85 | 19.6 ± 3.96 | 0.50 | 0.50 | CC(C)C[C@H](NC(=O)CN)C(=O)N[C@@H](CC(C)C)C(=O)N[C@@H](CCC(=O)O)C(=O)N[C@@H](CC(C)C)C(=O)N[C@@H](CC(C)C)C(=O)N[C@@H](CCC(=O)O)C(=O)N[C@@H](CC(C)C)C(=O)N[C@@H](CC(C)C)C(=O)N[C@@H](CC(C)C)C(=O)N[C@@H](Cc1c[nH]cn1)C(=O)N[C@@H](C)C(=O)N[C@@H](C)C(=O)NCC(=O)N[C@@H](Cc1c[nH]c2ccccc12)C(N)=O [EEH] (H-GLLELLELLLHAAGW-NH2) | > 25 | 12.9 ± 0.14 | 168 | 58 | 755 | 738 | significantly increased dye leakage from anionic liposomes
3 | 10.6 ± 3.46 | 78.8 ± 5.3 | 4.50 | 1.33 | CC(C)C[C@H](NC(=O)CN)C(=O)N[C@@H](CC(C)C)C(=O)N[C@@H](CCC(=O)O)C(=O)N[C@@H](CC(C)C)C(=O)N[C@@H](CC(C)C)C(=O)N[C@@H](CCC(=O)O)C(=O)N[C@@H](CC(C)C)C(=O)N[C@@H](CC(C)C)C(=O)N[C@@H](CC(C)C)C(=O)N[C@@H](CCC(=O)O)C(=O)N[C@@H](C)C(=O)N[C@@H](C)C(=O)NCC(=O)N[C@@H](Cc1c[nH]c2ccccc12)C(N)=O [EEE] (H-GLLELLELLLEAAGW-NH2) | > 25 | 50 | 28 | 35 | 346 | 143 | no increase in selectivity at low pH
